This passage reports IC50 results from US20220153728A1, “COMPOUNDS, COMPOSITIONS AND METHODS” (DENALI THERAPEUTICS INC., priority 2017, published 2022).

Molecules are shown by their SMILES.

One may read the IC50 as the concentration at which inhibition is half-maximal. Read a high IC50 as weaker potency.

This assay concerns the target LRRK2 G2019S (Homo sapiens, UniProt Q5S007, G2019S). In words: LRRK2 G2019S TR-FRET kinase assay (LRRKtide substrate). The class given is biochemical. As to conditions: LRRK2 G2019S enzyme 5 nM, 134 μM ATP, 60 minute reaction, 23° C. As for the experimental part:
Materials: • LRRK2 G2019S enzyme • Substrate (LRRKtide) • ATP • TR-FRET dilution buffer • pLRRKtide antibody • 384-well assay plate • DMSO
Enzyme Reaction Conditions
23° C. reaction temperature
10 μL total reaction volume
Detection Reaction Conditions
1×TR-FRET dilution buffer
2 nM antibody • 23° C. reaction temperature • 10 μL total reaction volume
Compounds are prepared by initially diluting to 1 mM with DMSO. 35 μL of reference compound solution, 35 μL of test compound solution, and 35 μL HPE are successively added to the source plate (384-well assay plate, Labcyte). The plates are centrifuged at 2500 rpm for 1 minute and sealed in foil. POD is used to perform a 3.162 fold serial dilution and 100 nL of reference compound solution, test compound solution, HPE and ZPE are transferred to assay plates. The assay plate is centrifuged at 2500 rpm for 1 minute, and sealed with foil.
To perform the enzyme reaction, 5 μL of LRRKtide substrate and kinase mixture in assay buffer is added to all wells of the assay plate. The plate is centrifuged to concentrate the mixture at the bottom of the wells. The assay plate is incubated at 23° C. for 20 minutes. Following incubation, 5 μL of 2×ATP in assay buffer is added to each well, and plates are centrifuged to concentrate the mixture at the bottom of the wells. The plate is incubated at 23° C. for 60 minutes.
To perform the detection of the reaction, EDTA completely mixed in TR-FRET dilution buffer is added to antibody reagent. 10 μL of detection reagent is added to all wells of each well of the assay plate and the plate is centrifuged to concentrate the mixture at the bottom of the wells. The plate is then incubated at 23° C. for 60 minutes. Plates are read on Perkin Elmer Envision 2104 instrument in TR-FRET mode using a 340 nm excitation filter, 520 nm fluorescence emission filter, and 490 or 495 nm terbium emission filter.
A general note: TR-FRET usually uses a lanthanide donor and a delayed reading to cut background.

LRRK2 G2019S, sequence (Q5S007 whole entry G2019S): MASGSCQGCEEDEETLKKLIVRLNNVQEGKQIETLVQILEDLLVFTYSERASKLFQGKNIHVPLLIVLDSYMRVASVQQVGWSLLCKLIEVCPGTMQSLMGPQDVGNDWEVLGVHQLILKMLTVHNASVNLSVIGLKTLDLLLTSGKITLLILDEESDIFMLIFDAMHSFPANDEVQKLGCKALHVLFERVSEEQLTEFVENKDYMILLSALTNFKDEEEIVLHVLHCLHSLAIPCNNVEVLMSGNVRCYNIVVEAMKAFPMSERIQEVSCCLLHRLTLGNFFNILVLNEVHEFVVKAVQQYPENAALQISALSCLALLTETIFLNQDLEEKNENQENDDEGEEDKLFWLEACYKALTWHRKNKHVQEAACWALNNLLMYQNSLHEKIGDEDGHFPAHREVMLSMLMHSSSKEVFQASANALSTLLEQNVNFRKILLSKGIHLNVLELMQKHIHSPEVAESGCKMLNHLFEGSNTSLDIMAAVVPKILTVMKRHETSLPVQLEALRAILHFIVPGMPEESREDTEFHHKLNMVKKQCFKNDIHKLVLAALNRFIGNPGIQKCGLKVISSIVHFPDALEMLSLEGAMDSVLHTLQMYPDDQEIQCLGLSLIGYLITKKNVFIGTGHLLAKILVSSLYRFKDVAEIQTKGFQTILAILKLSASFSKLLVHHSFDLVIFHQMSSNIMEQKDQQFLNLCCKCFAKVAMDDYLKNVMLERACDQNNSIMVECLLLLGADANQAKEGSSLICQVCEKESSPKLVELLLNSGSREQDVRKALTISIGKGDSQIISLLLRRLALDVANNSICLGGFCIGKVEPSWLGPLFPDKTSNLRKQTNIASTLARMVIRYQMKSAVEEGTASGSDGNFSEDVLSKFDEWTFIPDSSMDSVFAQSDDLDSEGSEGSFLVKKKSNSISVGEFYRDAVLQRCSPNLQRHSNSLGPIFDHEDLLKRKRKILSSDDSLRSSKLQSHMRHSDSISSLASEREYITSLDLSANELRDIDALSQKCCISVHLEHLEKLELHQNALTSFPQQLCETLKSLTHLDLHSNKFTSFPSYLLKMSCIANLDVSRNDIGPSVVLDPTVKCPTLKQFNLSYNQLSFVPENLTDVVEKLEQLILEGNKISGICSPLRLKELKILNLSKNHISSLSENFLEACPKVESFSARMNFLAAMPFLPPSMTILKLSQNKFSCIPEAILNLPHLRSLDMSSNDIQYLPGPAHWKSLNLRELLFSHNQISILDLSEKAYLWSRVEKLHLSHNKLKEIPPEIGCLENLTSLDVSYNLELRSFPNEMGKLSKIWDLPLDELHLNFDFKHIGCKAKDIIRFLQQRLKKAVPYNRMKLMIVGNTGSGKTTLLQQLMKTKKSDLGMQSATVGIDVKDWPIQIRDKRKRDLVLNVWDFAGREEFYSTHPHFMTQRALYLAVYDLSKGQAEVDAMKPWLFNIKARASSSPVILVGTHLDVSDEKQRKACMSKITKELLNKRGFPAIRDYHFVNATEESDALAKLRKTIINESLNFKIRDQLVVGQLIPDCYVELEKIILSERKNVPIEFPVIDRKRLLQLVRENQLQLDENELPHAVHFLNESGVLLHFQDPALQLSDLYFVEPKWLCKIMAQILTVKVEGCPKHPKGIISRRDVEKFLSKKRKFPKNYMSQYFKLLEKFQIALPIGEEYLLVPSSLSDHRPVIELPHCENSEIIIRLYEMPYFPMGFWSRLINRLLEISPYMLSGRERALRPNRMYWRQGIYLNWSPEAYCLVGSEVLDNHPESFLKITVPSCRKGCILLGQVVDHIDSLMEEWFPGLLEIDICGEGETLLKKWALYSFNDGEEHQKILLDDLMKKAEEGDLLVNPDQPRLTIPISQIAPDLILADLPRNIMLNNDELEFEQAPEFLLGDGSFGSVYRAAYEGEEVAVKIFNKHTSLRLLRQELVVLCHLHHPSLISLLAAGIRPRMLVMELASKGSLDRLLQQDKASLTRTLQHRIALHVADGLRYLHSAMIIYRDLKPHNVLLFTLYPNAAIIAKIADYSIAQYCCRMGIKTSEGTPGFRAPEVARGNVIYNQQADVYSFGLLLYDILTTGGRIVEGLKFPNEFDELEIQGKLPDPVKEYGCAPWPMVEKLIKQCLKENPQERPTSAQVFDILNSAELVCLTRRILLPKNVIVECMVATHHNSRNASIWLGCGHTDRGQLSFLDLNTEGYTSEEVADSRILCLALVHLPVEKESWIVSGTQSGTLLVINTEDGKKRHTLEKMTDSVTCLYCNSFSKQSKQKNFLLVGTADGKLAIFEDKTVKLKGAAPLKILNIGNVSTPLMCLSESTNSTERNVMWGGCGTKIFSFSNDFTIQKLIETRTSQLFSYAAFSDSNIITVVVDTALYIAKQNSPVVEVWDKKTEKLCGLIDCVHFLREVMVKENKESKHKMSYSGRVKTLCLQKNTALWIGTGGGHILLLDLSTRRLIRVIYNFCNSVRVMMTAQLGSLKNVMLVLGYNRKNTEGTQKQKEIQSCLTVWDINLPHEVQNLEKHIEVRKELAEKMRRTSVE

The molecule `Cc1nn(C2C[C@@]2(C)C#N)cc1Nc1ncc(C(F)(F)F)c(NC2CC2)n1` (single isomer, unassigned) [Compound 9] showed an IC50 of under 30 nM.

In turn, `CCNc1nc(Nc2cn(C3C[C@]3(C)C#N)nc2C)ncc1Br` (single isomer, unassigned) [Compound 11] displayed an IC50 of under 30 nM.

`CNc1nc(Nc2cn(C3C[C@@]3(C)C#N)nc2C2CC2)ncc1C(F)(F)F` (single isomer, unassigned) [Compound 2]: the IC50 is under 30 nM.

On to `Cc1nn(C2C[C@]2(C)C#N)cc1Nc1ncc(C(F)(F)F)c(NC2CC2)n1` (single isomer, unassigned) [Compound 7], for which the IC50 is under 30 nM.

In turn, `CCNc1nc(Nc2cn(C3C[C@@]3(C)C#N)nc2C2CC2)ncc1C(F)(F)F` (single isomer, unassigned) [Compound 1, 2-(3-cyclopropyl-4-((4-(ethylamino)-5-(trifluoromethyl)pyrimidin-2-yl)amino)-1H-pyrazol-1-yl)-1-methylcyclopropanecarbonitrile] displayed an IC50 of under 30 nM.

The molecule `CCNc1nc(Nc2cn(C3C[C@@]3(C)C#N)nc2C)ncc1C(F)(F)F` (single isomer, unassigned) [Compound 8] gave an IC50 of under 30 nM.

With `CCNc1nc(Nc2cn(C3C[C@H]3C#N)nc2C2CC2)ncc1C(F)(F)F` (single isomer, unassigned) [Compound 17], the IC50 was under 30 nM.

`CNc1nc(Nc2cn(C3C[C@]3(C)C#N)nc2C2CC2)ncc1C(F)(F)F` (single isomer, unassigned) [Compound 3] gave an IC50 of under 30 nM.

Turning to `Cc1nn(C2C[C@@]2(C)C#N)cc1Nc1ncc(C(F)(F)F)c(NC2(C)CC2)n1` (single isomer, unassigned) [Compound 14], the IC50 is under 30 nM.

`Cc1nn(C2C[C@]2(C)C#N)cc1Nc1ncc(C(F)(F)F)c(NC2(C)CC2)n1` (single isomer, unassigned) [Compound 13]: the IC50 was under 30 nM.

Molecule `CCNc1nc(Nc2cn(C3C[C@@]3(C)C#N)nc2C)ncc1Br` (single isomer, unassigned) [Compound 12] registered an IC50 of under 30 nM.

`CCNc1nc(Nc2cn(C3C[C@]3(C)C#N)nc2C)ncc1C(F)(F)F` (single isomer, unassigned) [Compound 6] registered an IC50 of under 30 nM.

For the molecule `Cc1c(Nc2ncc(C(F)(F)F)c(NC3CC3)n2)cnn1C1C[C@]1(C)C#N` (single isomer, unassigned) [Compound 15], the IC50 was under 30 nM.

Turning to `CCNc1nc(Nc2cnn(C3C[C@@H]3C#N)c2C)ncc1C(F)(F)F` (single isomer, unassigned) [Compound 18], the IC50 was under 30 nM.

`Cc1c(Nc2ncc(C(F)(F)F)c(NC3CC3)n2)cnn1C1C[C@@]1(C)C#N` (single isomer, unassigned) [Compound 16] registered an IC50 of under 30 nM.

On to `CCNc1nc(Nc2cn(C3C[C@]3(C)C#N)nc2C2CC2)ncc1C(F)(F)F` (single isomer, unassigned) [Compound 4, 2-(3-cyclopropyl-4-((4-(ethylamino)-5-(trifluoromethyl)pyrimidin-2-yl)amino)-1H-pyrazol-1-yl)-1-methylcyclopropanecarbonitrile], for which the IC50 was under 30 nM.

On to `CNc1nc(Nc2cn(C3C[C@@]3(C)C#N)nc2C)ncc1C(F)(F)F` (single isomer, unassigned) [Compound 10], for which the IC50 was under 30 nM.

`CNc1nc(Nc2cn(C3C[C@]3(C)C#N)nc2C)ncc1C(F)(F)F` (single isomer, unassigned) [Compound 5] had an IC50 of under 30 nM.

`CCNc1nc(Nc2cnn(C3C[C@H]3C#N)c2C)ncc1C(F)(F)F` (single isomer, unassigned) [Compound 19] came in with an IC50 of under 30 nM.
